Experimental findings from EP0126580B1 (priority 1983, dated 1984) are described below.

For this series the following is noted: rat, in vivo.

As to `C[n+]1ccccc1/C=N/O` [2-PAMCl, 2-pralidoxime chloride], the lethality entry was “fatal to all rats”, the “time in which the blood concentration drops below therapeutic level (TL)” value fell in the range of 2 to 3 h, the “time therapeutic plasma drug level maintained” value is recorded as 2-1/4 hours and the “time to death after injection” value is no more than 30 min. Moreover, the “blood drug level achieved” value (im) came out at 20000 ng/mL.
